Laboratory results taken from patent US9957261B2 (Hoffmann-La Roche Inc., priority 2014, dated 2018).

What was measured:
rat TAAR1 = rat TAAR1 (Rattus norvegicus (Rat), UniProt Q923Y9); assay: Radioligand binding assay on rat TAAR1; settings: rat TAAR1, membranes of stably transfected HEK-293 cells; second value of mouse/rat pair
In short: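 Competition binding with [3H]-(S)-4-[(ethyl-phenyl-amino)-methyl]-4,5-dihydro-oxazol-2-ylamine on membranes from HEK293 cells stably expressing rat TAAR1, in HEPES-NaOH pH 7.4. Compounds spanned 10 pM-10 μM in duplicate, incubated 1 h at 4 °C, with nonspecific binding set by 10 μM unlabeled ligand. Filtration followed by scintillation counting.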

mouse TAAR1 = mouse TAAR1 (Mus musculus (Mouse), UniProt Q923Y8); assay: Radioligand binding assay on mouse TAAR1; settings: mouse TAAR1, membranes of stably transfected HEK-293 cells; first value of mouse/rat pair
Chain of mouse TAAR1 (Q923Y8 whole entry): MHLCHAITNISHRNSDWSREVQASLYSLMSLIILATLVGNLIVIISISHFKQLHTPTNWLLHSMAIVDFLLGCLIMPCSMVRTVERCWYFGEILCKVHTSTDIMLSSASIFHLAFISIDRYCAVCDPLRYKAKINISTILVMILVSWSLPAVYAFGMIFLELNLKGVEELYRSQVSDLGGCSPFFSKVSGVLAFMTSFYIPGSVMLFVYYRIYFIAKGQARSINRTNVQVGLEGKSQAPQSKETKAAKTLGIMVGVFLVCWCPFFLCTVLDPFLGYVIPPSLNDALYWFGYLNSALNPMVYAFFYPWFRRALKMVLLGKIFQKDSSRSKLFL
In short: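 Membranes from HEK293 cells stably expressing mouse TAAR1, in HEPES-NaOH pH 7.4; displacement of ³H-(S)-4-[(ethyl-phenyl-amino)-methyl]-4,5-dihydro-oxazol-2-ylamine, nonspecific binding with 10 μM unlabeled ligand.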

Chain of rat TAAR1 (Q923Y9 whole entry): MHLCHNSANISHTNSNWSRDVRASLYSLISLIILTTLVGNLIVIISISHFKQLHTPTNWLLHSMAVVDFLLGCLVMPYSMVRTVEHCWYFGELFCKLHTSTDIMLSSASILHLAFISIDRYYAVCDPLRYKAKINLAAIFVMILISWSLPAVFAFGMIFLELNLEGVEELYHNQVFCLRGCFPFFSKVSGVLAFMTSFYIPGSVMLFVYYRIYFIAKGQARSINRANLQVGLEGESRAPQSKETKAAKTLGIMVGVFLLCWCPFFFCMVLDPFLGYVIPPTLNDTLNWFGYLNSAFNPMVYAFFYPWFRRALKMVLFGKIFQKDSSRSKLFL

| Compound | Ki (rat TAAR1) | Ki (mouse TAAR1) |
| --- | --- | --- |
| NC1CCc2cc(C(=O)Nc3ccc(C4CC4)cc3)ccc2C1 (stereo not shown) [Example 60, 6-Amino-N-(4-cyclopropylphenyl)-5,6,7,8-tetrahydronaphthalene-2-carboxamide] | 0.0213 µM | 0.0096 µM |
| N[C@H]1CCc2cc(Nc3ccc(C(F)(F)F)cn3)ccc2C1 [Example 38, (S)—N6-(5-(Trifluoromethyl)pyridin-2-yl)-1,2,3,4-tetrahydronaphthalene-2,6-diamine] | 0.0021 µM | 0.0032 µM |
| Cc1cc(C(=O)Nc2ccc3c(c2)CC[C@H](N)C3)ccn1 [Example 17, (S)—N-(6-Amino-5,6,7,8-tetrahydronaphthalen-2-yl)-2-methylisonicotinamide] | 0.147 µM | 0.111 µM |
| CCc1n[nH]c(C(=O)Nc2ccc3c(c2)CC[C@H](N)C3)c1C [Example 51, (S)—N-(6-Amino-5,6,7,8-tetrahydronaphthalen-2-yl)-3-ethyl-4-methyl-1H-pyrazole-5-carboxamide] | 0.0046 µM | 0.0062 µM |
| N[C@H]1CCc2cc(NC(=O)c3cc(Cl)nc(Cl)c3)ccc2C1 [Example 46, (S)—N-(6-Amino-5,6,7,8-tetrahydronaphthalen-2-yl)-2,6-dichloroisonicotinamide] | 0.0022 µM | 0.0042 µM |
| NC1CCc2cc(NC(=O)c3ccnc(C(F)(F)F)c3)ccc2C1 (stereo not shown) [Example 1, N-(6-Amino-5,6,7,8-tetrahydronaphthalen-2-yl)-2-(trifluoromethyl)isonicotinamide] | 0.0072 µM | 0.0159 µM |
| N[C@@H]1CCc2cc(C(=O)Nc3cccc(OC(F)(F)F)c3)ccc2C1 [Example 78, (R)-6-Amino-N-(3-(trifluoromethoxy)phenyl)-5,6,7,8-tetrahydronaphthalene-2-carboxamide] | 0.0044 µM | 0.0073 µM |
| Cc1onc(C(=O)Nc2ccc3c(c2)CC[C@H](N)C3)c1Cl [Example 26, (S)—N-(6-Amino-5,6,7,8-tetrahydronaphthalen-2-yl)-4-chloro-5-methylisoxazole-3-carboxamide] | 0.0199 µM | 0.0049 µM |
| N[C@H]1CCc2cc(NC(=O)c3ccc4ccccc4c3)ccc2C1 [Example 43, (S)—N-(6-Amino-5,6,7,8-tetrahydronaphthalen-2-yl)-2-naphthamide] | 0.001 µM | 0.0006 µM |
| CCCc1cc(C(=O)Nc2ccc3c(c2)CC[C@H](N)C3)nn1CC(F)F [Example 5, (S)—N-(6-Amino-5,6,7,8-tetrahydronaphthalen-2-yl)-1-(2,2-difluoroethyl)-5-propyl-1H-pyrazole-3-carboxamide] | 0.0021 µM | 0.0067 µM |
| N[C@H]1COc2cc(NC(=O)c3ccnc(C(F)(F)F)c3)ccc2C1 [Example 90, (R)—N-(3-Aminochroman-7-yl)-2-(trifluoromethyl)isonicotinamide] | 0.0096 µM | 0.0091 µM |
| NC1CCc2cc(C(=O)NCc3ccc(C(F)(F)F)cc3)ccc2C1 (stereo not shown) [Example 35, 6-Amino-N-(4-(trifluoromethyl)benzyl)-5,6,7,8-tetrahydronaphthalene-2-carboxamide] | 0.035 µM | 0.0055 µM |
| Cc1cc(C(=O)Nc2ccc3c(c2)CC[C@@H](N)C3)nc(C(F)(F)F)n1 [Example 6, (R)—N-(6-Amino-5,6,7,8-tetrahydronaphthalen-2-yl)-6-methyl-2-(trifluoromethyl)-pyrimidine-4-carboxamide] | 0.0544 µM | 0.232 µM |
| N[C@H]1CCc2cc(NC(=O)c3cnn(-c4ccc(OC(F)(F)F)cc4)c3)ccc2C1 [Example 29, (S)—N-(6-Amino-5,6,7,8-tetrahydronaphthalen-2-yl)-1-(4-(trifluoromethoxy)phenyl)-1H-pyrazole-4-carboxamide] | 0.0005 µM | 0.0012 µM |
| N[C@H]1CCc2cc(NC(=O)Nc3ccc(OC(F)(F)F)cc3)ccc2C1 [Example 65, (S)-1-(6-Amino-5,6,7,8-tetrahydronaphthalen-2-yl)-3-(4-(trifluoromethoxy)phenyl)urea] | 0.0003 µM | 0.0012 µM |
| Cc1cc(C(=O)Nc2ccc3c(c2)CC[C@H](N)C3)nc(C(F)(F)F)n1 [Example 7, (S)—N-(6-Amino-5,6,7,8-tetrahydronaphthalen-2-yl)-6-methyl-2-(trifluoromethyl)-pyrimidine-4-carboxamide] | 0.0198 µM | 0.0318 µM |
| N#Cc1ccc(NC(=O)c2ccc3c(c2)CCC(N)C3)cc1 (stereo not shown) [Example 70] | 0.0032 µM | 0.0044 µM |
